Experimental data: PMC12142043, “Cell-based high-content approach for SARS-CoV-2 neutralization identifies unique monoclonal antibodies and PI3K pathway inhibitors” (Frontiers in Cell and Developmental Biology, 2025)
Where a name gives a salt, the structure may show the parent alone.

Test system: SARS-CoV-2 (USA-WA1/2020) in Calu-3 cells
Assay type: cell-based
Settings: Calu-3, 48 h; for dsRNA signal, AU High: high dose (10 µM); for dsRNA signal, AU Low: low dose (100 nM)

Molecule	dsRNA signal, AU High [AU]	dsRNA signal, AU Low [AU]
Cc1cccc(CC(=O)N2CCc3c2ccc(-c2cn(C)c4ncnc(N)c24)c3F)n1 [GSK2656157]	2371.9	33522.6
Nc1nccc(-c2c(-c3ccc(F)cc3)ncn2C2CCCCC2)n1 [PF-670462]	1350.7	18716.0
CCN1C(=O)CNc2ncc(-c3ccc(-c4nc[nH]n4)nc3C)nc21 [CC-115]	5666.1	44138.8
O=C(Nc1cccc(Nc2nccc(Nc3cccc(C(F)(F)F)c3)n2)c1)C1CC1 [Aurora Kinase Inhibitor III]	2378.0	11511.4
Cl.Cl.c1cc(-c2cnn3cc(-c4ccc(OCCN5CCCCC5)cc4)cnc23)ccn1 [Dorsomorphin 2HCl]	1809.4	18817.3
Fc1ccc2[nH]ccc2c1-c1nc(N2CCOCC2)c2sc(CN3CCN(CC4CC4)CC3)cc2n1 [PI-3065]	625.6	44145.1
CC(C)Oc1ccc(-c2cnc3c(-c4ccnc5ccccc45)cnn3c2)cc1 [DMH-1]	13545.0	45359.2
CCOc1ccc(Nc2ccc(/C(=C3C=C/C(=[N+](/CC)Cc4cccc(S(=O)(=O)[O-])c4)C=C/3C)c3ccc(N(CC)Cc4cccc(S(=O)(=O)O)c4)cc3C)cc2)cc1 [Brilliant Blue G]	11949.6	31753.4
N#Cc1cccc(-c2c[nH]c3ncnc(N4CCOCC4)c23)c1 [PF-06447475]	53174.2	40604.3
6H05	9210.5	25435.6
C[C@@H](Nc1cc(F)cc(F)c1)c1cc(C(=O)N(C)C)cc2c(=O)cc(N3CCOCC3)oc12 [AZD8186]	4769.3	35908.0
10058-F4	21785.0	24031.2
NC(=O)c1ccccc1Nc1ccnc(Nc2cccc(O)c2)n1 [DB07268]	10652.5	37894.5
COc1c(C)c(C(=O)c2ccc(N)c(C(=O)[O-])c2)n2ccccc12.[Na+] [SSR128129E]	4736.0	27624.5
CNC(=O)c1ccc(Nc2ncc(C(F)(F)F)c(NCc3nccnc3N(C)S(C)(=O)=O)n2)cc1 [Defactinib]	31683.7	56452.3
Cc1ccc2nc(NCCN)c3ncc(C)n3c2c1.Cl [BMS345541 hydrochloride]	0.0	5872.9
2-D08	21678.5	7689.9
O=C(O)C(Cl)Cl [DCA]	2582.6	13605.1
C=CC(=O)Nc1cccc(Oc2nc(Nc3ccc(N4CCN(C)CC4)cc3)ncc2Cl)c1 [WZ3146]	23148.6	16337.5
CNC(=O)c1cccc(-c2ccc3c(N4CCOC[C@@H]4C)nc(N4CCOC[C@@H]4C)nc3n2)c1 [AZD2014]	4130.5	12584.4
Cc1cc(C)nc(NS(=O)(=O)c2ccc(NC(=S)NC(=O)COc3ccc(Br)cc3Cl)cc2)n1 [ZCL278]	9541.3	41590.0
CC(C)(C)Cn1c(N)nc2ccc(-c3[nH]c(C(C)(C)C)nc3-c3ccc(F)cc3)nc21 [LY2228820]	88.7	5927.3
OCC1OC(O)CC(O)C1O [2-Deoxy-D-glucose]	5572.7	62378.7
O=C(NOCCO)c1ccc2cncn2c1Nc1ccc(I)cc1F [GDC-0623]	0.0	1908.1
Cn1cnc2c(F)c(Nc3ccc(Br)cc3F)c(C(=O)NOCCO)cc21 [MEK162 (ARRY-162, ARRY-438162)]	32104.0	54835.5
CCCCNc1ncc2c(-c3ccc(CN4CCN(C)CC4)cc3)cn([C@H]3CC[C@H](O)CC3)c2n1 [UNC2025]	55553.7	67297.4

Molecule	dsRNA signal, AU High [AU]	dsRNA signal, AU Low [AU]
CC(C)(C)C(=O)Nc1ccc2c(c1)C(=O)C(=O)c1ccccc1-2 [SF1670]	30745.4	12301.2
Cl.O=C(NC1CCNCC1)c1[nH]ncc1NC(=O)c1c(Cl)cccc1Cl [AT7519 Hydrochloride]	0.0	18031.2
CCc1c(C(=O)NNC(=O)C(O)c2cc(F)cc(F)c2)ccc(O)c1C (stereo not drawn) [EMD638683]	288.1	20264.2
CCOC(=O)c1ccc(N2NC(=O)/C(=C/c3ccc([N+](=O)[O-])o3)C2=O)cc1 [PYR-41]	41809.3	6659.6
CN(C)C/C=C/C(=O)Nc1cc2c(Nc3ccc(F)c(Cl)c3)ncnc2cc1O[C@H]1CCOC1 [Afatinib dimaleate]	15371.8	40279.2
Cn1nccc1Nc1nccc(-c2cc3c(s2)C(C)(C)N(CCN2CCOCC2)C3=O)n1 [LY3214996]	4594.5	22927.9
CC(C)[C@H](CO)Nc1nc(Nc2ccc(C(=O)O)c(Cl)c2)c2ncn(C(C)C)c2n1 [Purvalanol B]	4137.6	7805.6
N#Cc1c(Oc2ccc(F)c(NC(=O)Cc3cccc(C(F)(F)F)c3)c2)ccc2nc(NC(=O)C3CC3)sc12 [TAK-632]	12667.4	8796.8
COc1ccc(S(=O)(=O)Nc2ccccc2CN(C)C/C=C/c2ccc(Cl)cc2)cc1.Cl [KN-92 hydrochloride]	0.0	14359.5
O=C(Nc1cccc(Cl)c1)Nc1ncc(CCNc2ncnc3ccsc23)s1 [SNS-314 Mesylate]	5716.5	33317.4
Cn1sc(=O)n(Cc2ccccc2)c1=O [TDZD-8]	7580.3	26092.4
C[C@@H]1COCCN1c1cc(C2([S@](C)(=N)=O)CC2)nc(-c2cc[nH]c3nccc2-3)n1 [AZD6738]	290.6	16844.7
CCCCNc1ncc(C(=O)NCc2ccc(-n3ccnc3)cc2)c(NC2CCC(O)CC2)n1 (stereo not drawn) [UNC2881]	446.4	42094.2
CN1CCN(c2ccc3nc(-c4c(N)c5c(F)cccc5[nH]c4=O)[nH]c3c2)CC1 [Dovitinib (TKI-258, CHIR-258)]	15765.0	183.2
O=C(Nc1cc(Oc2cc(F)c(NC(=O)C3(C(=O)Nc4ccc(F)cc4)CC3)cc2F)ccn1)C1CC1 [Altiratinib]	7645.1	34585.3
Nc1ccc(O)c(C(=O)O)c1 [Mesalamine]	17187.6	2129.6
CC(C)(C)c1cc(C=C(C#N)C#N)cc(C(C)(C)C)c1O [Tyrphostin 9]	58.0	17328.1
COCCNCc1ccc(-c2cc3nccc(Oc4ccc(NC(=S)NC(=O)Cc5ccc(F)cc5)cc4F)c3s2)nc1 [MGCD-265]	4249.4	42710.5
Brc1c(Br)c(Br)c2n[nH]nc2c1Br [TBB]	3323.3	16520.0
Cc1cc(O)c2c(c1)C(=O)c1cc(O)cc(O)c1C2=O [Emodin]	20341.5	11688.8
FC(F)(F)c1ccc(CNc2ccc(Cc3c[nH]c4ncccc34)cn2)cc1 [PLX647]	24285.0	52941.2
O=c1cc(CN2CCOCC2)occ1OCCCCCSc1ccnc2cc(C(F)(F)F)ccc12 [EHT 1864]	22471.9	17099.7
Cc1cc(CS(=O)(=O)c2ccccc2)cc(OCc2ccc(CN3CCC[C@@H]3CO)cc2)c1 [PF-543]	28127.6	66805.4
c1ccc(-c2oc3ncnc(NC[C@@H]4CCCO4)c3c2-c2ccccc2)cc1 [AIM-100]	17272.0	4414.3
CN1CCN(c2cccc(Nc3nc4c(-c5ccc(S(C)(=O)=O)cc5)cccn4n3)c2)CC1 [CEP-33779]	12244.2	3458.4
